The test system of data set [1] is tubulin. The data set is described as follows: assembly of tubulin subunits into microtubules in vitro (light scattering). In kind it is biochemical. The note with it: for effect on tubulin polymerization: 25 μM. The method, then:
(§1) FIG. 5 is a picture showing the fluorescence quenching of tubulin by Targetin. Panel A, quenching of tubulin fluorescence emission by Targetin in a concentration-dependent manner (▪) control, 10 μM (●), 20 μM (▴), 30 μM (▾), 50 μM ( ? ), 75 μM ( ? ) and 100 μM (♦) Panel B, double-reciprocal plot for Targetin binding to tubulin. […] Equivalent amount of solvent DMSO was used as a negative control.
(§2) However, at a four-fold concentration of Targetin (100 μM), it inhibited the rate and extent of tubulin polymerization by ˜17% (FIG. 5C).

The subject of data set [2] is tubulin. The note with it: cited from earlier work.
For data set [3], the system named is cells expressing green fluorescent protein (GFP)-tagged α-tubulin. The note with it: 30 second time period; cited from earlier work.
Data set [4] relates to melanoma, glioblastoma, ovarian, breast carcinoma, and prostate cancer cells. The note with it: many cancer cell types; cited from earlier work.
The conditions of data set [5]: oral 300 mg/kg body weight to 600 mg/kg; cited from earlier work.
The subject of data set [6] is FR-α overexpressing cancer cells (SK-OV3 human ovarian carcinoma cells, U87 glioblastoma cells). The data set is described as follows: cell viability using Trypan blue (adherent live cells), 48 hours. In kind it is cell-based. The method, then: Live cells remain adherent and exclude Trypan blue (although a few late stage dying cells that remain adherent are Trypan blue-positive, and are not counted as live adherent). The numbers of adherent live cells are quantified in panels B and D respectively.
An equal number of two types of cells, (SK-OV3 human ovarian carcinoma cells and U87 glioblastoma cells) were plated in 15 tissue culture dishes. Plates were divided into five groups of triplicates.
FIGS. 8A & B show phase images and quantification of cell viability using Trypan blue in SK-OV3 cells. FIGS. 8C & D show parallel data for human glioblastoma U87 cells. Data for two other FR-α cell lines are similar (not shown).

The test system of data set [7] is tubulin. The data set is described as follows: tubulin-fluorescence quenching titration. In kind it is binding. The note with it: 10-100 μM, compared with parent noscapine. Here is the method:
as §1, §2

Data set [8] has as its system variety of cancer cell types with varying degrees of folate receptor expression. The data set is described as follows: sulforhodamine B cellular proliferation assay. Type of data set: cell-based. The note with it: irrespective of folate receptor status. The method, then: Our next goal was to determine whether differences in folate receptor overexpression affected cytotoxicity in response to Targetin. To this end, the ability of Targetin to inhibit cellular proliferation of a variety of cancer cell types with varying degrees of folate receptor expression was evaluated using a sulforhodamine B assay to determine total protein content (FIG. 7).

Data set [9] concerns porcine renal LLCPK-1 cells stably expressing GFP-tagged α-tubulin. The data set is described as follows: microtubule dynamics in living cells (plus ends of GFP-tagged α-tubulin MTs). The note with it: for Rate, Growing: individual microtubules in interphase cells. Type of data set: cell-based. The method, then: FIG. 6 is a series of photographs showing how Targetin increases the pause-time of cellular MTs. A gallery of video frames, 6 seconds apart, of plus ends of several microtubules in control and Targetin treated cells.
To determine if Targetin affects MT dynamics in living cells, the life history of the plus ends of Targetin-treated cellular MTs was evaluated, resolvable individually at the cell periphery of porcine renal LLCPK-1 cells stably expressing green fluorescent protein (GFP)-tagged α-tubulin. These cells were treated either with Targetin in DMSO or DMSO alone. […] As expected in control cells, MTs alternated between phases of growth and shortening interrupted occasionally by a state of attenuated dynamic activity (pause), determined by noting the position of the plus ends over time. The control panels show different positions of MT plus ends in a 24 second time period (arrows represent fixed pixel position for reference).

In data set [10] the target is T1, folate receptor (Homo sapiens, UniProt P15328).
T1 construct: determined in cultured KB-31 cells (nasopharyngeal epidermal carcinoma cell line) overexpressing the folate receptor using ^3H-folic acid; endogenous in cells; host or cells: KB-31 cells
T1 sequence (P15328 25-234): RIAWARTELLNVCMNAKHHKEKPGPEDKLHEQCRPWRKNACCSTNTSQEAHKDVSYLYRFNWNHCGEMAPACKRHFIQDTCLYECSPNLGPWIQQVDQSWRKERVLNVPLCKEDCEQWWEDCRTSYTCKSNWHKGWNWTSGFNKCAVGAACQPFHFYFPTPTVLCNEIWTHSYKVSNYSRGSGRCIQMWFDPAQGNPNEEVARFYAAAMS
The note with it: KB-31 cells, 3H-folic acid; cited from earlier work.

On to `COc1ccc2c(c1OC)C(=O)O[C@@H]2[C@H]1c2c(cc3c(c2OC)OCO3)CCN1C` [Noscapine], for which the “effect on tubulin polymerization” value in data set [1] is recorded as “did not inhibit tubulin polymerization”. The “apparent stoichiometry of binding to tubulin” value in [2] is recorded as 0.95±0.02 noscapine molecule per tubulin dimer subunit. For the same molecule, the “MT dynamics (position of plus ends)” value in data set [3] was “suppressed MT dynamics”. Also, in data set [4], the “effect on cell cycle and cell death” value was “brief mitotic pause followed by extensive apoptosis”. For the same molecule, in data set [5], the “drug bioavailability on doubling the oral dose” value is listed as “did not increase”.

Regarding Noscapine-folate [Targetin], in data set [6] (10 μM Targetin vs 25 μM noscapine, FR-α overexpressing cell lines), the “effectiveness compared with noscapine (adherent live cells)” value is recorded as “significantly more effective than noscapine”. Moreover, the “effect of free folic acid on Targetin toxicity” value in data set [6] (50 μM folic acid + 10 μM Targetin, FR-α overexpressing cancer cells) was “free folic acid mitigates the Targetin toxicity”. Moreover, the “effect on tubulin polymerization” value in [1] is recorded as “did not inhibit tubulin polymerization”. Also, in data set [1] (100 μM), the “inhibition of the rate and extent of tubulin polymerization” value was roughly 17%. Further, the “tubulin binding activity (quenching of tubulin fluorescence)” value in data set [7] was “does retain the tubulin binding activity”. Moreover, the “potency in inhibiting cellular proliferation relative to noscapine” value in data set [8] is reported as “about 3 fold”. Besides, in data set [9] (Targetin 5 μM), the Average pause turned out to be 10.25 ± 1.25 s; the Dynamicity is recorded as 4.52 ± 1.21 μm/min; the “Percent of total time, Attenuation” value worked out at 32.5%; the “Percent of total time, Growing” value came out at 35.2%. Also, in [9] (Targetin 5 μM), the “Percent of total time, Shortening” value turned out to be 28.5%; the “Rate, Shortening” value is 11.78 ± 1.21 μm/min; the “Transition frequency, Catastrophe” value turned out to be 0.079 ± 0.07 s⁻¹; the “Transition frequency, Rescue” value amounted to 0.07 ± 0.012 s⁻¹. Moreover, the “Rate, Growing” value in data set [9] (Targetin 5 μM) was 8.72 ± 1.32 μm/min. Also, in data set [9] (Targetin 10 μM), the Average pause worked out at 14.52 ± 2.36 s; the Dynamicity is listed as 2.75 ± 1.05 μm/min; the “Percent of total time, Attenuation” value turned out to be 44.8%; the “Percent of total time, Growing” value is given as 24.3%. In [9] (Targetin 10 μM), the “Percent of total time, Shortening” value amounted to 20.1%; the “Rate, Shortening” value was 9.92 ± 1.25 μm/min; the “Transition frequency, Catastrophe” value was 0.072 ± 0.05 s⁻¹; the “Transition frequency, Rescue” value amounted to 0.059 ± 0.019 s⁻¹. The “Rate, Growing” value in [9] (Targetin 10 μM) came to 7.15 ± 0.56 μm/min. Moreover, in data set [9] (summary statement), the “MT-binding and MT dynamics attenuating activity relative to noscapine” value was roughly 3 fold.

For the molecule `Nc1nc(O)c2nc(CNc3ccc(C(=O)N[C@@H](CCC(=O)O)C(=O)O)cc3)cnc2n1` [folic acid], in data set [10], the “in vitro binding affinity” value is listed as 41 nmol/L.

Source of the values: patent US8426398B2 (Emory University, priority 2009, dated 2013).
